The source of these data is ChEMBL document CHEMBL1201862, “PubChem BioAssay data set” (2004).

SMILES strings stand for the structures.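 Interpolation was linear, between the two tested concentrations surrounding the appropriate level; five concentrations were tested over 48 hours in 96-well plates. Abbreviation: GI50, concentration required for 50% inhibition of growth.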 Calls of active or inactive are those of the source. Cut-off read from the data, not from the text of the source: active = GI50 up to about 1.1 µM and inactive = higher.

Test systems include K562; A498; 786-0; DU-145; SN12C; SNB-75; SK-OV-3; KM12; HCT-116; SF-295; SNB-19; MOLT-4; PC-3; MCF7; NCI-H522; SK-MEL-5; HCT-15; HL-60; CCRF-CEM; LOX IMVI.
Holding throughout (assay): NCI anticancer screen, dose series, 48 h

Consider `C=CCOC(=O)C1=C(CCC[C@@H](C)O[Si](C)(C)C(C)(C)C)N=C(N)N2[C@H](CCO)CC[C@@H]12`, for which the GI50 in the test with K562 is 6.34 µM (inactive); with A498, 18 µM (inactive); with 786-0, 17.9 µM (inactive); with DU-145, 14.3 µM (inactive); in the test on SN12C, 16.5 µM (inactive); with SNB-75, 16.4 µM (inactive). Further, the GI50 in the test on SK-OV-3 is 14.1 µM (inactive); with KM12 it was 11.3 µM (inactive); with HCT-116, 8.28 µM (inactive); in the test on SF-295, 12.6 µM (inactive); in the test on SNB-19, 15.5 µM (inactive); with MOLT-4, 10.5 µM (inactive). In addition, the GI50 is 8.45 µM (inactive) in the test on PC-3; 7.69 µM (inactive) with MCF7; 12.7 µM (inactive) in the test on NCI-H522; 12.4 µM (inactive) in the test with SK-MEL-5; 17.7 µM with HCT-15.

On to `Cc1cc(S(=O)(=O)Nc2nc3ccccc3nc2-c2cccc([N+](=O)[O-])c2)c(S)cc1Cl`, for which the GI50 is 26 µM (inactive) in the test with K562; 14.4 µM (inactive) in the test on A498; 23.8 µM (inactive) in the test with 786-0; 18.5 µM (inactive) in the test with DU-145; 30 µM (inactive) with SN12C; 16.6 µM (inactive) in the test on SK-OV-3. Further, the GI50 in the test on KM12 is 15.6 µM (inactive); with HCT-116 it was 18.8 µM (inactive); in the test on SF-295, 25.1 µM (inactive); in the test on HL-60, 20.4 µM (inactive); in the test on SNB-19, 16.5 µM (inactive); in the test with MOLT-4 it was 22.6 µM (inactive). The GI50 in the test with PC-3 was 19.7 µM (inactive); in the test with MCF7 it was 24 µM (inactive); in the test on NCI-H522, 16.8 µM (inactive); in the test on SK-MEL-5 it was 15 µM (inactive); with CCRF-CEM it was 23.5 µM (inactive); with HCT-15 it was 43 µM.

`CC1(C)CC(=O)c2c(nc3ccc4ccccc4c3c2-c2ccc(NC(=O)CCCC(=O)Nc3ccc(-c4c5c(nc6ccc7ccccc7c46)CC(C)(C)CC5=O)cc3)cc2)C1`: the GI50 in the test with K562 is > 100 µM (inactive); with A498, > 100 µM (inactive); in the test with 786-0 it was > 100 µM (inactive); in the test with DU-145, > 100 µM (inactive); with SN12C, > 100 µM (inactive); with SNB-75, 41.6 µM (inactive). Moreover, the GI50 in the test on SK-OV-3 was > 100 µM (inactive); with LOX IMVI, > 100 µM (inactive); in the test with KM12 it was > 100 µM (inactive); in the test on HCT-116 it was > 100 µM (inactive); in the test on SF-295, > 100 µM (inactive); with HL-60, 5.94 µM (inactive). Besides, the GI50 in the test with SNB-19, with MOLT-4, in the test on PC-3, in the test with MCF7, with SK-MEL-5 and in the test with CCRF-CEM was > 100 µM (inactive) in each case. The GI50 in the test on HCT-15 is more than 100 µM.

Consider `CC1CN=C(N(C)C(=O)Nc2ccc(Cl)cc2)S1` (stereo not given), for which the GI50 in the test with K562 is 8.61 µM (inactive); with A498, 40.1 µM (inactive); in the test on 786-0, 19.5 µM (inactive); in the test on DU-145, 12.9 µM (inactive); with SN12C, 15.2 µM (inactive); in the test on SNB-75, > 100 µM (inactive). The GI50 in the test on SK-OV-3 is 46 µM (inactive); with LOX IMVI it was 20.2 µM (inactive); in the test with KM12 it was 4.72 µM (inactive); in the test with HCT-116, 4.89 µM (inactive); with SF-295, 5.14 µM (inactive); with HL-60, 15.7 µM (inactive). Moreover, the GI50 with SNB-19 was 49 µM (inactive); with MOLT-4, 14 µM (inactive); with PC-3, 15.7 µM (inactive); in the test on MCF7, 32.6 µM (inactive); with SK-MEL-5 it was 9.04 µM (inactive); in the test with CCRF-CEM, > 10 µM (inactive). The GI50 with HCT-15 is 0.841 µM.

Consider `COC(=O)Cn1c(=O)oc2nc(-c3ccccc3)cc(C(F)(F)F)c21`, for which the GI50 with A498 was > 100 µM (inactive); in the test with 786-0 it was > 100 µM (inactive); in the test on DU-145 it was > 100 µM (inactive); in the test on SN12C, 56.6 µM (inactive); in the test on SNB-75 it was > 100 µM (inactive); with SK-OV-3 it was > 100 µM (inactive). Also, the GI50 in the test on KM12 was 69.8 µM (inactive); in the test on HCT-116, 42.9 µM (inactive); in the test with SF-295, 45.3 µM (inactive); with SNB-19, > 100 µM (inactive); in the test with MOLT-4, 23.6 µM (inactive); in the test with PC-3, > 100 µM (inactive). Further, the GI50 in the test with MCF7 was > 100 µM (inactive); in the test on NCI-H522, 25.3 µM (inactive); in the test on SK-MEL-5, 26.7 µM (inactive); in the test with HCT-15, more than 100 µM.

Consider `CCN(CC)CCCNc1n[n+]([O-])c2ccccc2[n+]1[O-]`, for which the GI50 is 6.93 µM (inactive) in the test on K562; 3.62 µM (inactive) in the test on A498; 8.69 µM (inactive) with 786-0; 18.4 µM (inactive) in the test with DU-145; 4.68 µM (inactive) in the test with SN12C; 23.1 µM (inactive) with SNB-75. Besides, the GI50 in the test on KM12 was 15 µM (inactive); with HCT-116 it was 11 µM (inactive); in the test on SF-295, 15 µM (inactive); in the test on HL-60, 3.57 µM (inactive); in the test on SNB-19, 25.9 µM (inactive); in the test on MOLT-4, 2.73 µM (inactive). The GI50 in the test with PC-3 was 9.73 µM (inactive); in the test on MCF7, 3.92 µM (inactive); with NCI-H522, 8.22 µM (inactive); in the test with SK-MEL-5, 1.52 µM (inactive); with CCRF-CEM it was 14.2 µM (inactive); in the test on HCT-15, 2.5 µM.

`COc1ccc(OC)c2c(C(C)=O)cccc12`: the GI50 in the test on K562, with A498, in the test on 786-0, in the test with DU-145, with SN12C and in the test with SK-OV-3 was > 100 µM (inactive) each time. For the same compound, the GI50 in the test with KM12 is > 100 µM (inactive); in the test on HCT-116, > 100 µM (inactive); with SF-295, > 100 µM (inactive); in the test with HL-60 it was 85.1 µM (inactive); in the test on SNB-19 it was > 100 µM (inactive); in the test on MOLT-4, 81.8 µM (inactive). Also, the GI50 is > 100 µM (inactive) in the test with PC-3; > 100 µM (inactive) with MCF7; > 100 µM (inactive) in the test on NCI-H522; > 100 µM (inactive) in the test with SK-MEL-5; > 100 µM (inactive) in the test on CCRF-CEM; more than 100 µM in the test with HCT-15.

`COC1OC2COC(c3ccccc3)OC2C(O)C1OC(=S)c1ccccc1` (stereo not given): the GI50 was 53.3 µM (inactive) in the test on K562; 40.5 µM (inactive) in the test on A498; 97.3 µM (inactive) in the test with DU-145; 21.8 µM (inactive) in the test with SN12C; > 100 µM (inactive) in the test on SK-OV-3; 0.244 µM (active) in the test on LOX IMVI. Besides, the GI50 in the test with SF-295 is 39.3 µM (inactive); in the test with SNB-19, > 100 µM (inactive); with MOLT-4, 70.6 µM (inactive); with PC-3, 18.3 µM (inactive); in the test with MCF7, 36.3 µM (inactive); in the test on SK-MEL-5, 23 µM (inactive). In addition, the GI50 with CCRF-CEM was 19.9 µM (inactive); in the test with HCT-15 it was 28.4 µM.

On to `Cc1nc(O)nc(N/N=C/c2ccc(Cl)cc2)c1C(=O)NC(C)(CO)CO`, for which the GI50 in the test on K562, in the test with A498, in the test with DU-145, in the test with SN12C, in the test on SNB-75 and with SK-OV-3 was > 100 µM (inactive) each time. Further, the GI50 with LOX IMVI, in the test on KM12, with HCT-116, in the test on SF-295, in the test with HL-60 and in the test on SNB-19 was > 100 µM (inactive) in each case. The GI50 in the test with MOLT-4 is > 100 µM (inactive); with PC-3, > 100 µM (inactive); in the test on MCF7 it was > 100 µM (inactive); in the test with SK-MEL-5, > 100 µM (inactive); in the test with CCRF-CEM, > 100 µM (inactive); with HCT-15, more than 100 µM.

`O=C1NC2(CCNCC2)Oc2ccccc21`: the GI50 in the test on K562, in the test with 786-0, in the test with DU-145, in the test with SN12C, in the test with SNB-75 and in the test on SK-OV-3 was > 100 µM (inactive) each time. In addition, the GI50 in the test on LOX IMVI, in the test with KM12, with HCT-116, in the test with SF-295, with HL-60 and in the test with SNB-19 was > 100 µM (inactive) each time. For the same compound, the GI50 in the test on MOLT-4, with PC-3, with MCF7, in the test with NCI-H522, with SK-MEL-5 and in the test with CCRF-CEM was > 100 µM (inactive) throughout. The GI50 with HCT-15 was more than 100 µM.

On to `CC(=O)OC(OC(C)=O)c1c2ccccc2cc2ccccc12`, for which the GI50 in the test on K562 was 3.56 µM (inactive); in the test on A498 it was 17.7 µM (inactive); in the test with 786-0, 20.3 µM (inactive); with DU-145, 27.9 µM (inactive); in the test on SN12C, 12.9 µM (inactive); in the test on SNB-75, 17.3 µM (inactive). Further, the GI50 in the test with SK-OV-3 is 20.9 µM (inactive); with LOX IMVI, 4.35 µM (inactive); with KM12, 6.93 µM (inactive); with HCT-116 it was 10.3 µM (inactive); in the test with SF-295 it was 20.7 µM (inactive); in the test on HL-60, 23.7 µM (inactive). Also, the GI50 in the test with SNB-19 is 14.8 µM (inactive); in the test on MOLT-4 it was 2.78 µM (inactive); in the test with PC-3 it was 3.59 µM (inactive); in the test on MCF7, 16.5 µM (inactive); in the test with SK-MEL-5, 11.9 µM (inactive); with CCRF-CEM, 2.39 µM (inactive). The compound further showed a GI50 in the test with HCT-15 of 7.55 µM.
